Measured values from doi:10.1101/2024.10.29.620944v2, “Discovery and isolation of novel capsaicinoids and their TRPV1-related activity” (biorxiv, 2025).
Like-named read-outs stand apart in the source and are kept apart here.

Tests used:
[1] = molecular target: T1, rat TRPV1 receptor (rTRPV1) (Rattus norvegicus, UniProt O35433); assay: Fluo-4 calcium influx assay, FDSS, irTRPV1-FlpIn293 cells; assay type: cell-based
T1 construct: rat TRPV1 stably expressed under doxycycline control (Tet-on) in Flp-In T-REx-293 cells (irTRPV1-FlpIn293); homotetramer

[2] = molecular target: T1, rat TRPV1 receptor (rTRPV1); assay: cell-based
Protocol: Purchased capsaicinoid standards, capsiate (both MedChemExpress), vanillin (Honeywell Fluka) and 4-hydroxy-3-methoxybenzyl alcohol (Alfa Aesar) and AMG-517 (TargetMol, Boston, MA, USA) were all dissolved in DMSO to 10 mM as stock solutions. Stably transfected irTRPV1-FlpIn293 cells with Tet-on system (procedure described in Supplementary Methods 1.3) were grown to confluence in Advanced Dulbecco’s Modified Eagle Medium (Adv-DMEM/F12, #12634) supplemented with 10% FBS, 1% Pen Strep, 1% Glutamax (all Gibco, Thermo Fisher Scientific). Forty-eight hours before the experiment, doxycycline (final concentration 1 μg/mL)(Sigma-Aldrich, St.Luid, Mi., USA) and 10 μM ruthenium red (RR; Merck KGaG, Darmstadt, Germany) were added to the media to induce TRPV1 expression. After 24 hours, the cells were washed and detached with 0.5% trypsin–EDTA in PBS (Gibco). Cells resuspended in blocking media (Adv-DMEM/F12 + 10% FBS + 10 μM RR) were counted and then seeded into a 384-well plate (3674, Corning, Corning, NY, USA) in the amount of 3×10^4 per well. Twenty-four hours after seeding, a 2× Fluo-4 direct dye solution (Invitrogen, Thermo Fisher Scientific), dissolved in HHBS buffer, pH ∼ 7.4, was added to well with cells and incubated for 30 minutes at 37°C and then for 40 minutes at room temperature. Once incubated with the dye, the supernatant was removed using BlueWasher (BlueCatbio NH Inc., Lebanon, NH, USA) and changed to an HHBS + 10 μM sulfinpyrazone (Merck KGaG) solution added by Certus (Fritz Gyger AG, Gwatt, Switzerland), followed by 10 minutes of incubation in FDSS μCell (∼ 30°C; Hamamatsu, Hamamatsu city, Japan). A separate compound plate was prepared using an Echo dispenser 650 (Beckman Coulter Inc.,Brea, CA, USA). The final concentration was reached by adding HHBS + 10 μM sulfinpyrazone as above by Certus. The rTRPV1 activity measurement started by recording the baseline (40 s, sample interval 0.339 s). Then the compounds/compound mixture were transferred to the dedicated wells by tips while the recording was running for the next 5 minutes.

[3] = molecular target: T1, rat TRPV1 receptor (rTRPV1); assay: cell-based; design: species or system irTRPV1-FlpIn293 (HEK293); Fluo-4 calcium influx, FDSS, TRPV1 activation
Protocol: Purchased capsaicinoid standards, capsiate (both MedChemExpress), vanillin (Honeywell Fluka) and 4-hydroxy-3-methoxybenzyl alcohol (Alfa Aesar) and AMG-517 (TargetMol, Boston, MA, USA) were all dissolved in DMSO to 10 mM as stock solutions. Stably transfected irTRPV1-FlpIn293 cells with Tet-on system (procedure described in Supplementary Methods 1.3) were grown to confluence in Advanced Dulbecco’s Modified Eagle Medium (Adv-DMEM/F12, #12634) supplemented with 10% FBS, 1% Pen Strep, 1% Glutamax (all Gibco, Thermo Fisher Scientific). Forty-eight hours before the experiment, doxycycline (final concentration 1 μg/mL)(Sigma-Aldrich, St.Luid, Mi., USA) and 10 μM ruthenium red (RR; Merck KGaG, Darmstadt, Germany) were added to the media to induce TRPV1 expression. After 24 hours, the cells were washed and detached with 0.5% trypsin–EDTA in PBS (Gibco). Cells resuspended in blocking media (Adv-DMEM/F12 + 10% FBS + 10 μM RR) were counted and then seeded into a 384-well plate (3674, Corning, Corning, NY, USA) in the amount of 3×10^4 per well. Twenty-four hours after seeding, a 2× Fluo-4 direct dye solution (Invitrogen, Thermo Fisher Scientific), dissolved in HHBS buffer, pH ∼ 7.4, was added to well with cells and incubated for 30 minutes at 37°C and then for 40 minutes at room temperature. […]

[4] = Flp-In-T-REx-293; read-out: Top

T1 sequence (O35433 whole entry): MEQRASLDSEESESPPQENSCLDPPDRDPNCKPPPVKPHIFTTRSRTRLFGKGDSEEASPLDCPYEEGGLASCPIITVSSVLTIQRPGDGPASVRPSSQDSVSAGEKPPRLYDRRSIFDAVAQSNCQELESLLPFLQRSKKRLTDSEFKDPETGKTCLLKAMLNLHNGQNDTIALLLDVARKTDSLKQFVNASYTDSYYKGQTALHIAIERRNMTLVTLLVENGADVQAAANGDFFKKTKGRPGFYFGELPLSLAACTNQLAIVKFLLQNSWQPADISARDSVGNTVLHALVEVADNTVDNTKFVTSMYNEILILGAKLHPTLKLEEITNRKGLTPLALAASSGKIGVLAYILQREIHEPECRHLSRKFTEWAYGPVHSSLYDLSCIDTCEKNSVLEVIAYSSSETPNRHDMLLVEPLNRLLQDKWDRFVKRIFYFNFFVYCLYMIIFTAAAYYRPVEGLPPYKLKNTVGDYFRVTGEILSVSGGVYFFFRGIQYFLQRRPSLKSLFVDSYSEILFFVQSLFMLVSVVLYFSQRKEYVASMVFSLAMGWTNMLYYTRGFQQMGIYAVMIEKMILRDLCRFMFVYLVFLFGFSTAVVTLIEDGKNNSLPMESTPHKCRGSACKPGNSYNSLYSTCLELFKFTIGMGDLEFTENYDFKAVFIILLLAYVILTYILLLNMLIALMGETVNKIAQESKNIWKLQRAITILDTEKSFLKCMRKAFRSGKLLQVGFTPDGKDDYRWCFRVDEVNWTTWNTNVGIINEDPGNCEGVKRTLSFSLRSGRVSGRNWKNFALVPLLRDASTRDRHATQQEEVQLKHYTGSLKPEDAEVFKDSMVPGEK

Row | Structure (SMILES) | EC50 ([1]; read-out: EC50) | Emax [2, 4] | other results
1 | COc1cc(CNC(=O)CCCCCCC(C)C)ccc1O [compound 2, Dihydrocapsaicin] | 0.05 µM |  | 
2 | COc1cc(CNC(=O)CCCCCCCC(C)C)ccc1O [compound 4, Homodihydrocapsaicin I] | 0.32 µM |  | 
3 | COc1cc(CNC(=O)CC/C=C/C(C)C)ccc1O [compound 10, Nornorcapsaicin] | 0.81 µM | 77.8% | 
4 | COc1cc(CNC(=O)CCCCCC(C)C)ccc1O [compound 11, Nordihydrocapsaicin] |  |  | EC50 [2]: 0.0534 µM
5 | CCCCCCCC(=O)NCc1ccc(O)c(OC)c1 [compound 13, N-vanillyl octanamide] | 0.15 µM | 93.7% | 
6 | CCCCCCCCCC(=O)NCc1ccc(O)c(OC)c1 [compound 14, N-Vanillyldecanamide] | 0.2 µM | 114% | 
7 | COc1cc(CNC(=O)CC/C=C/C=C/C(C)C)ccc1O [compound 16, N-vanillyl-4E,6E-dien-8-methylnonanamide] | 0.14 µM | 94.3% | 
8 | CCCCCCCCC(=O)NCc1ccc(O)c(OC)c1 [compound 17, Nonivamide] |  |  | Emax ([2]; Flp-In-T-REx-293, read-out: Top): 105%
9 | CCCCCCCC/C=C\CCCCCCCC(=O)NCc1ccc(O)c(OC)c1 [compound 20, Olvanil] | 0.12 µM | 40.4% | 
10 | COc1cc(CNC(=O)CCCC/C=C/C(C)CO)ccc1O (stereo not drawn) [compound 22, ω-Hydroxycapsaicin] | 5.56 µM | 90% | 
11 | COc1cc(CNC(=O)CCCC/C=C/C(C)C)cc(-c2cc(CNC(=O)CCCCCCC(C)C)cc(OC)c2O)c1O [compound 23, 6″,7″-Dihydro-5′,5‴-dicapsaicin] |  | 90.7% | EC50 ([1]; agonist, HHBS pH ~7.4, ~30 °C, unreliable (sample 79.94% pure, trace monomers may inflate the potency), read-out: EC50): 10.27 µM; EC50 [2]: 10.3 µM
12 | COc1cc(CNC(=O)CCCC/C=C/C(C)C)ccc1O[C@@H]1O[C@H](CO)[C@@H](O)[C@H](O)[C@H]1O [compound 24, Capsaicin β-D-glucopyranoside] | 4.69 µM | 102% | 
13 | CCCCCCC(=O)NCc1ccc(O)c(OC)c1 [compound 26, N-Heptanoate vanillylamide] | 1.81 µM | 114% | 
14 | COc1cc(CNC(=O)CCCCC(C)C)ccc1O [compound 27, Nornordihydrocapsaicin] | 1.04 µM | 94.8% | 
15 | COc1cc(CNC(=O)CC(C)C)ccc1O [compound 30, N-isovalerylvanillylamin] | 2.84 µM | 80% | 
16 | COc1cc(CNC(=O)CCCCCC(=O)C(C)C)ccc1O [compound 31, N-(4-Hydroxy-3-methoxybenzyl)-8-methyl-7-oxononanamide] | 0.56 µM | 84.2% | EC50 [2]: 0.602 µM
17 | COc1cc(CNC(=O)CCCCC2OC2C(C)C)ccc1O (stereo not drawn) [compound 32, Epicapsaicin] | 0.6 µM | 110% | EC50 [2]: 1.11 µM
18 | COc1cc(CNC(=O)CCCCCCCC(C)O)ccc1O (stereo not drawn) [compound 33, N-vanillyl-9-hydroxydecanamide] | 6.33 µM | 96.5% | 
19 | COc1cc(CNC(=O)CCCCCC(O)C(C)C)ccc1O (stereo not drawn) [compound 34, N-vanillyl-7-hydroxy-8-methylnonamide] | 1.46 µM | 90.6% | 
20 | COc1cc(CNC(=O)C=CC=CC(C)C)ccc1O [compound 35, N-vanillyl 6-Methyl-2,4-heptadienamide] | 1.2 µM | 77.8% | 
21 | COc1cc(CNC(=O)CCCC/C=C/C(C)C)cc(-c2cc(CNC(=O)CCCC/C=C/C(C)C)cc(OC)c2O)c1O [compound 38, 5,5’-dicapsaicin] |  | 83.3% | EC50 ([1]; agonist, HHBS pH ~7.4, ~30 °C, unreliable (trace monomers may inflate the potency)): 4.46E-06 (95% CI 3.848e-006 to 5.265e-006) M
22 | COc1cc(COC(=O)CCCC/C=C/C(C)C)ccc1O [compound 39, capsiate] |  |  | EC50 [3]: 491 µM
